Measured values reported in patent US7807702B2 (Eli Lilly and Company, priority 2005, dated 2010).
pKi: −log10 of the molar value.

Target: T1, cloned human glucagon receptor (Homo sapiens, UniProt P47871)
T1 construct: The hGlucR cDNA is subcloned into the expression plasmid phD; expressed in transfected cells; host or cells: 293 HEK cells, hygromycin-selected; crude plasma membranes
Assay: Glucagon Receptor (hGlucR) Binding Assay
Procedure: Crude plasma membranes are prepared using cells from suspension culture. […] The second supernate is combined with the first supernate.
The specific activity is 2200 Ci/mmol.

T1 sequence (P47871 26-477): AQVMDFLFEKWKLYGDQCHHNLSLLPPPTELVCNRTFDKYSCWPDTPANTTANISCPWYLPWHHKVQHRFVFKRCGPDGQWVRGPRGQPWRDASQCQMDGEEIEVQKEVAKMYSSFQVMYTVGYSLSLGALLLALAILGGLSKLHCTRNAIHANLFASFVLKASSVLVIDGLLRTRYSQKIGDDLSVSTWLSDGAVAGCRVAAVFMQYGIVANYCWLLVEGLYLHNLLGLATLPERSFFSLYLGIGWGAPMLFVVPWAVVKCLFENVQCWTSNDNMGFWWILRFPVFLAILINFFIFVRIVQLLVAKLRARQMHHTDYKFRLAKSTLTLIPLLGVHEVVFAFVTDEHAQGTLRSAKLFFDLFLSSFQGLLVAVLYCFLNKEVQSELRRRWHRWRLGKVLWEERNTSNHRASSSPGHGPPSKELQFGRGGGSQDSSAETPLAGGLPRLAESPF

pKi: 7.44
SMILES: CCCC(Sc1cc(C)c(-c2ccc(C(F)(F)F)cc2)c(C)c1)c1ccc(C(=O)NCc2nnn[nH]2)s1 (stereo not shown)
